Experiments:
[1] = tested on: non-smoker; experiment: Comparison of a normal filtered cigarette and cigarettes with oily Vitamin E injected into the filter or the tobacco, puffs by a non-smoker; type: in vivo; conditions: for lung irritation and coughing: three puffs, non-smoker
From the text: A second comparison was made between a normal filtered cigarette, a filtered cigarette with oily Vitamin E injected into the filter and oily Vitamin E injected into the length of the tobacco. In this second comparison, the control cigarette was a normal MARLBORO® cigarette. In two separate MARLBORO® cigarettes, oily Vitamin E was taken from a Vitamin E capsule with a syringe and injected into the filter of one cigarette and into the length of the tobacco of the other cigarette.
The three cigarettes where then lit with a butane lighter and three equal, alternating puffs were taken from each cigarette by a non-smoker. […] The cigarette with Vitamin E along the length of the tobacco yielded no irritation. Moreover, the flavor of the Vitamin E tobacco cigarette gave the impression of having been enhanced.

[2] = stand-alone additive, apart from an alcohol mixture; cited from earlier work
[3] = tested on: smoker and non-smoker; experiment: Comparison of a normal filterless cigarette and a filterless cigarette with dry Vitamin E analog, smoked; type: in vivo
From the text: A comparison was made between a normal filterless cigarette and a filterless cigarette modified to include a substantially pure, “dry” form of Vitamin E analog. For this comparison, […] of CHESTERFIELD® tobacco were removed from a CHESTERFIELD® cigarette and mixed with 0.1 grams of Vitamin E acid succinate. The mixed tobacco blend was formed into a filterless cigarette using a Rizla auto rolling box. A control cigarette, without Vitamin E analog additive, was also formed using the same Rizla auto rolling box.

[4] = tested on: non-tobacco user; experiment: Comparison of a normal smokeless tobacco wad and a wad with dry Vitamin E analog, placed between cheek and gum; type: in vivo; conditions: 0.1 grams mixed with 10.0 grams SKOAL long cut smokeless tobacco, 1.0 gram wad between cheek and gum
From the text: A third comparison was made between a normal wad of smokeless tobacco and a wad of smokeless tobacco modified to include a substantially pure, “dry” form of Vitamin E analog. For this comparison, 1.0 gram of unmodified SKOAL® long cut smokeless tobacco (i.e., snuff) was first placed in the mouth of a non-tobacco user between the cheek and gum. This unmodified smokeless tobacco produced a pleasant flavor but also a simultaneous burning sensation in the mouth, throat and esophagus which, along with an induced cough, forced the non-tobacco user to spit out the unmodified smokeless tobacco. To clear the burning sensation from mouth, the non-tobacco user washed mouth out with water. Nonetheless, the burning sensation persisted in the mouth and throat for over 5 minutes after the initial washing.
Approximately four hours later, long enough to ensure the sensitivity and the burning sensation had completely subsided, the non-tobacco user then mixed 0.1 grams of Vitamin E acid succinate obtained from the Eastman Chemical Corporation of Kingsport, Tenn. with 10.0 grams of SKOAL® long cut smokeless tobacco. A 1.0 gram wad of this Vitamin E modified smokeless tobacco was then placed in the mouth of the non-tobacco user between the cheek and gum. Like the unmodified snuff, this Vitamin E modified snuff produced a similar pleasant flavor.

[5] = tobacco air curing, vacuum infiltration; cited from earlier work

With `Cc1c(C)c2c(c(C)c1O)CC[C@@](C)(CCC[C@H](C)CCC[C@H](C)CCCC(C)C)O2` [Vitamin E, d-alpha tocopherol] the “lung irritation and coughing” value ([1]; oily Vitamin E injected into the filter of a MARLBORO cigarette, control irritated lungs and induced coughing) was “less irritating but still induced an unpleasant lung reaction and a slight cough”, the “lung irritation and coughing” value ([1]; oily Vitamin E injected into the length of the tobacco of a MARLBORO cigarette) was “no irritation” and the “beneficial effect on irritation, retest on the same samples” value ([1]; retest after several days, taken to indicate the Vitamin E had oxidized/metabolized) was “the beneficial effect was gone”. The “neutralizing NNN” value [2] was “ineffective”.
With `Cc1c(C)c2c(c(C)c1OC(=O)CCC(=O)O)CC[C@@](C)(CCC[C@H](C)CCC[C@H](C)CCCC(C)C)O2` [Vitamin E acid succinate, d-alpha tocopheryl acid succinate] the “throat or lung irritation when smoked” value ([3]; 0.1 grams mixed with 7.5 grams CHESTERFIELD tobacco, filterless cigarette, smoker and non-smoker, control caused throat and lung irritation) was “no throat or lung irritation”, the “throat or lung irritation, retest on the same samples” value ([3]; retest after several days and again after several weeks) was “the same results” and the “irritation (burning sensation) of mouth, throat and esophagus” value [4] was “completely non-irritating”.
In the case of `Cc1c(C)c2c(c(C)c1O)CC[C@@](C)(CCC[C@H](C)CCC[C@H](C)CCCC(C)C)O2` [alpha-tocopherol], the “diminution in concentration during the curing process” value [5] is given as 25%.
